Laboratory results taken from patent US12595243B2, “Modulators of extracellular signal-regulated kinase” (GEN1E LIFESCIENCES INC., priority 2023, dated 2026).
Read-outs that look alike come from different tables or passages of the source.

Legend:
[1] = test system: human pancreatic carcinoma cell line PL-45; assay: Cytotoxicity in cancer cell lines (CellTiter-Glo), PL-45; details: PL45, 48 h, read-out: Cytotoxicity EC50 at 48 hours, PL-45
Experimental: (§2) The cytotoxicity of test compounds was determined for several cell lines including melanoma cell line RPMI-7951, melanoma cell line Sk-Mel-28, melanoma cell line A375, melanoma cell line U87, glioblastoma cell line U87, immortalized human T lymphocyte Jurkat cells, and human pancreatic carcinoma cell line PL-45.
(§3) All cells were obtained from ATCC. RPMI, DMEM, EMEM and pen/strep were obtained from Invitrogen. Normocin® was obtained from InvivoGen. FBS was obtained from Gibco. Cell viability reagent Cell-titer glow was obtained from Promega.
(§4) The growth media for A375 and PL45 cells was DMEM supplemented with antibiotic/anti-mycotic pen/strep and Normocin® (InvivoGen) and 10% FBS.
(§5) Ten (10) mM solutions of each of the test compounds were prepared in dimethyl sulfoxide (DMSO) and serially diluted in DMSO to provide solutions having concentrations of the test compound of 3 mM, 1 mM, 0.3 mM, 0.1 mM, 0.03 mM, or 0.01 mM. Forty (40) μL of each of the solutions were further diluted to 400 μL in the cell specific complete media to provide 10× stock solutions having a 1 mM, 300 μM, 100 μM, 30 μM, 10 μM, 3 μM, 1 μM, or 0.3 μM of the test compound. Ten (10) μL of DMSO was diluted to 400 μL in the complete media and used as the 0 μM control.
(§6) For the cytotoxicity studies, all cells were grown in their respective complete media. Confluent cells were harvested and plated into two 96-well tissue culture treated plates at 5,000-8,000 cells/wells in 180 μL media. Twenty (20) μL of each of the 10× stock solutions were added to the wells and mixed.
(§7) After incubating for 24 h, media was aspirated out and replaced with 180 μL/well of the fresh media and 20 μL/well of the 10× stock solutions in duplicate wells in duplicate plates (Plates 1 and 2; and 3 and 4) and in quadruplicate wells (Plate 5) were added, mixed and cultured for 48 hours. The final concentrations of each test compound were 100 μM, 30 μM, 10 μM, 3 μM, 1 μM, 0.3 μM, 0.1 μM and 0 μM.
(§8) After 48 hours and/or 72 hours following addition of the test compounds, one plate each was removed from the incubator, the media aspirated out, 100 μL of CellTiter-Glo® reagent added to each well, and the resulting luminescent signals measured using a VICTOR-2® plate reader.
(§9) The data from the plate reader were exported to GraphPad (Prism) and data processed using non-linear regression and EC50 value determined.

[2] = test system: melanoma cell line A375; assay: Cytotoxicity in cancer cell lines (CellTiter-Glo), A375; details: A375 cells, mean of three tests
Experimental: as §2, §3, §4, §5, §6, §7, §8, §9

[3] = test system: glioblastoma cell line U87; assay: Cytotoxicity in cancer cell lines (CellTiter-Glo), U87; type: cell-based; details: Homo sapiens, U-87 MG, U87 cells, mean of three tests
Text: (§1) All cells were obtained from ATCC. […] Normocin® was obtained from InvivoGen. FBS was obtained from Gibco. […] All test compounds were synthesized as described herein.

[4] = test system: immortalized human T lymphocyte Jurkat cells; assay: Cytotoxicity in cancer cell lines (CellTiter-Glo), Jurkat; type: cell-based; details: Jurkat cells, mean of three tests
Text: as §1

[5] = test system: melanoma cell line Sk-Mel-28; assay: Cytotoxicity in cancer cell lines (CellTiter-Glo), Sk-Mel-28; type: cell-based; details: Homo sapiens, Sk-Mel-28 cells, mean of three tests
Text: as §1

[6] = Cytotoxicity in primary cells (CellTiter-Glo), PBMC; type: cell-based; details: mean of three tests
Text: as §1

[7] = test system: melanoma cell line RPMI-7951; assay: Cytotoxicity in cancer cell lines (CellTiter-Glo), RPMI-7951; type: cell-based; details: Homo sapiens
Text: as §1

[8] = Homo sapiens, A-375, 48 h, read-out: Cytotoxicity EC50 at 48 hours, A375, 48 h
[9] = Homo sapiens, A-375, 72 h, read-out: Cytotoxicity EC50 at 72 hours, A375, 72 h
[10] = 48 h, read-out: Cytotoxicity EC50 at 48 hours, U87
[11] = 72 h, read-out: Cytotoxicity EC50 at 72 hours, U87
[12] = 48 h, read-out: Cytotoxicity EC50 at 48 hours, Jurkat
[13] = 72 h, read-out: Cytotoxicity EC50 at 72 hours, Jurkat
[14] = SK-MEL-28, 48 h, 48 h, read-out: Cytotoxicity EC50 at 48 hours, Sk mel
[15] = SK-MEL-28, 72 h, 72 h, read-out: Cytotoxicity EC50 at 72 hours, Sk mel
[16] = RPMI-7951, 48 h, read-out: Cytotoxicity EC50 at 48 hours, RPMI
[17] = RPMI-7951, 72 h, read-out: Cytotoxicity EC50 at 72 hours, RPMI
[18] = read-out: Cytotoxicity EC50 at 48 hours, A375, 48 h

O=S1(=O)C=CC(OS(=O)(=O)c2ccc3ccccc3c2)C1 (stereo not shown) [(1), 1,1-dioxido-2,3-dihydrothiophen-3-yl naphthalene-2-sulfonate]
EC50 [1]: 2100 nM
EC50 [2, 8]: 4000 nM
EC50 [2, 9]: 800 nM
EC50 [3, 10]: 1000 nM
EC50 [3, 11]: 4000 nM
EC50 [4, 12]: 3 µM
EC50 [4, 13]: 5 µM
EC50 [5, 14]: 4000 nM
EC50 [5, 15]: 300 nM
EC50 at 48 h [6]: 400 nM
EC50 at 72 h [6]: 400 nM
EC50 [7, 16]: 1000 nM
EC50 [7, 17]: 4000 nM

O=S1(=O)C=CC(OS(=O)(=O)c2ccc(COc3ccccc3)cc2)C1 (stereo not shown) [(29), 1,1-dioxido-2,3-dihydrothiophen-3-yl 4-(phenoxymethyl)benzenesulfonate]
EC50 [1]: 1000 nM
EC50 [2, 8]: 10000 nM

O=S1(=O)C=CC(OS(=O)(=O)c2ccc(Sc3ccccc3)cc2)C1 (stereo not shown) [(44), 1,1-dioxido-2,3-dihydrothiophen-3-yl 4-(phenylthio)benzenesulfonate]
EC50 [1]: 800 nM
EC50 [2, 8]: 3210 nM

CC(C)Nc1cc(-c2c[nH]c(C(=O)N[C@H](CO)c3cccc(Cl)c3)c2)c(Cl)cn1 [Ulixertinib, ulixertinib, reference compound]
EC50 [1]: 14000 nM
EC50 [2, 8]: 600 nM
EC50 at 48 h [6]: 31000 nM

Cc1cc(Oc2ccccc2)ccc1S(=O)(=O)OC1C=CS(=O)(=O)C1 (stereo not shown) [(40), 1,1-dioxido-2,3-dihydrothiophen-3-yl 2-methyl-4-phenoxybenzenesulfonate]
EC50 [1]: 200 nM
EC50 [2, 8]: 300 nM

O=S1(=O)C=CC(OS(=O)(=O)c2ccc(-c3ccccc3)cc2)C1 (stereo not shown) [(17), 1,1-dioxido-2,3-dihydrothiophen-3-yl [1,1′-biphenyl]-4-sulfonate]
EC50 [2, 9]: 10000 nM
EC50 [2, 18]: 2600 nM
EC50 [3, 10]: 2000 nM
EC50 [3, 11]: 900 nM
EC50 [4, 12]: 9 µM
EC50 [4, 13]: 2 µM
EC50 [5, 14]: 3200 nM
EC50 [5, 15]: 800 nM
EC50 at 48 h [6]: 500 nM
EC50 at 72 h [6]: 500 nM
EC50 [7, 16]: 1000 nM
EC50 [7, 17]: 400 nM

O=S1(=O)C=CC(OS(=O)(=O)c2ccc(-c3ccccc3)cc2)C1 (stereo not shown) [(33), 1,1-dioxido-2,3-dihydrothiophen-3-yl [1,1′-biphenyl]-4-sulfonate]
EC50 [1]: 2300 nM
EC50 [2, 18]: 1000 nM

COc1cc(S(=O)(=O)OC2C=CS(=O)(=O)C2)ccc1Oc1ccccc1 (stereo not shown) [(43), 1,1-dioxido-2,3-dihydrothiophen-3-yl 3-methoxy-4-phenoxybenzenesulfonate]
EC50 [1]: 610 nM
EC50 [2, 8]: 3120 nM

O=C(c1ccccc1)c1ccc(S(=O)(=O)OC2C=CS(=O)(=O)C2)cc1 (stereo not shown) [(38), 1,1-dioxido-2,3-dihydrothiophen-3-yl 4-benzoylbenzenesulfonate]
EC50 [1]: 500 nM
EC50 [2, 8]: 200 nM

O=S1(=O)C=CC(OS(=O)(=O)c2ccc(Oc3ccccc3)cc2)C1 (stereo not shown) [(18), 1,1-dioxido-2,3-dihydrothiophen-3-yl 4-phenoxybenzenesulfonate]
EC50 [2, 8]: 2000 nM
EC50 [3, 10]: 1000 nM
EC50 [5, 14]: 2000 nM
EC50 [5, 15]: 3000 nM
EC50 at 48 h [6]: 200 nM
EC50 at 72 h [6]: 21000 nM

O=S1(=O)C=CC(OS(=O)(=O)c2cccc(OC3CCCCC3)c2)C1 (stereo not shown) [(37), 1,1-dioxido-2,3-dihydrothiophen-3-yl 3-(cyclohexyloxy)benzenesulfonate]
EC50 [1]: 1600 nM
EC50 [2, 8]: 2800 nM

O=S1(=O)C=CC(OS(=O)(=O)c2cccc(C3CCCCC3)c2)C1 (stereo not shown) [(35), 1,1-dioxido-2,3-dihydrothiophen-3-yl 3-cyclohexylbenzenesulfonate]
EC50 [1]: 1200 nM
EC50 [2, 8]: 1000 nM

O=S1(=O)C=CC(OS(=O)(=O)c2cccc(-c3ccccc3)c2)C1 (stereo not shown) [(26), 1,1-dioxido-2,3-dihydrothiophen-3-yl [1,1′-biphenyl]-3-sulfonate]
EC50 [1]: 1000 nM
EC50 [2, 8]: 7000 nM

O=S1(=O)C=CC(OS(=O)(=O)c2ccc(C(O)c3ccccc3)cc2)C1 (stereo not shown) [(39), 1,1-dioxido-2,3-dihydrothiophen-3-yl 4-(hydroxy(phenyl)methyl)benzenesulfonate]
EC50 [1]: 1500 nM
EC50 [2, 8]: 1300 nM

Cc1cc(S(=O)(=O)OC2C=CS(=O)(=O)C2)ccc1Oc1ccccc1 (stereo not shown) [(42)]
EC50 [1]: 1200 nM
EC50 [2, 8]: 500 nM

COS(=O)(=O)c1ccc2ccccc2c1 [(30), methyl naphthalene-2-sulfonate]
EC50 [1]: 8800 nM
EC50 [2, 8]: > 100000 nM

O=S1(=O)C=CC(OS(=O)(=O)c2ccc(OC3CCCCC3)cc2)C1 (stereo not shown) [(36), 1,1-dioxido-2,3-dihydrothiophen-3-yl 4-(cyclohexyloxy)benzenesulfonate]
EC50 [1]: 2100 nM
EC50 [2, 8]: 4300 nM

O=C(OC1C=CS(=O)(=O)C1)c1ccc(-c2ccccc2)cc1 (stereo not shown) [(24), 1,1-dioxido-2,3-dihydrothiophen-3-yl [1,1′-biphenyl]-4-carboxylate]
EC50 [1]: 49000 nM
EC50 [2, 8]: > 100000 nM

O=S1(=O)C=CC(OS(=O)(=O)c2ccc(C3CCCCC3)cc2)C1 (stereo not shown) [(34), 1,1-dioxido-2,3-dihydrothiophen-3-yl 4-cyclohexylbenzenesulfonate]
EC50 [1]: 900 nM
EC50 [2, 8]: 1500 nM
